Laboratory results published in PMC7883216 (Peptides, 2021).
Where two headings read alike, the source gives them in different places.

Experiments:
[1] = in humans; cited from earlier work
[2] = Pharmacokinetics of exogenous mouse GIP; format: in vivo, female C57Bl/6Jrj mice; conditions: for peak intact GIP concentration as % of peak total GIP concentration: in-house RIAs; for increase of iAUC of intact GIP upon co-administration of Val-Pyr: P < 0.0001; for Clearance, corrected for body weight / Apparent volume of distribution corrected for body weight: IV 25 nmol/kg BW, mean ± SE, n = 6-9; for Clearance, corrected for body weight: CL = k*Vd
[3] = anaesthetized rats; cited from earlier work
[4] = female, C57Bl/6Jrj, mouse, plasma, iv, 25 nmol/kg BW

Compound | plasma half-life [1] | peak intact GIP concentration as % of peak total GIP concentration ([2]; IP injection 25 nmol/kg BW, with Val-Pyr) [%] | peak intact GIP concentration as % of peak total GIP concentration ([2]; IP injection 25 nmol/kg BW, without Val-Pyr) [%] | increase of iAUC of intact GIP upon co-administration of Val-Pyr ([2]; IP injection 25 nmol/kg BW, Fig. 1F) [fold] | Clearance, corrected for body weight ([2]; Val-Pyr co-administration) [µL/min/g] | Apparent volume of distribution corrected for body weight ([2]; Val-Pyr co-administration) [mL/g] | Clearance, corrected for body weight ([2]; placebo (no Val-Pyr)) [µL/min/g] | Apparent volume of distribution corrected for body weight ([2]; placebo (no Val-Pyr), Vd = total dose/C0) [mL/g] | peak intact GIP concentration as % of peak total GIP concentration ([2]; IV injection 25 nmol/kg BW, with Val-Pyr) [%] | peak intact GIP concentration as % of peak total GIP concentration ([2]; IV injection 25 nmol/kg BW, without Val-Pyr, mean) [%] | increase of iAUC of intact GIP upon co-administration of Val-Pyr ([2]; IV injection 25 nmol/kg BW, Fig. 1B) [fold] | peak intact GIP concentration as % of peak total GIP concentration ([2]; SC injection 25 nmol/kg BW, with Val-Pyr) [%] | peak intact GIP concentration as % of peak total GIP concentration ([2]; SC injection 25 nmol/kg BW, without Val-Pyr) [%] | increase of iAUC of intact GIP upon co-administration of Val-Pyr ([2]; SC injection 25 nmol/kg BW, Fig. 1D) [fold] | half-life [2, 4] [min] | tissue uptake dose [2, 4] [%ID] | tissue uptake dose ([2]; female, C57Bl/6Jrj, mouse, plasma, sc, 25 nmol/kg BW) [%ID] | intact GIP levels as % of total GIP plasma concentrations ([2]; following SC and IP GIP administration without DPP-4 inhibitor) | plasma half-life [3]
human GIP(1–42): human GIP(1–42), half-life in humans quoted from ref 11 | approximately 7 min | – | – | – | – | – | – | – | – | – | – | – | – | – | – | – | – | – | –
CC[C@H](C)[C@H](NC(=O)[C@H](CO)NC(=O)[C@H](Cc1ccc(O)cc1)NC(=O)[C@H](CC(=O)O)NC(=O)[C@H](CO)NC(=O)[C@@H](NC(=O)[C@H](Cc1ccccc1)NC(=O)[C@@H](NC(=O)CNC(=O)[C@H](CCC(=O)O)NC(=O)[C@H](C)NC(=O)[C@@H](N)Cc1ccc(O)cc1)[C@@H](C)O)[C@@H](C)CC)C(=O)N[C@@H](C)C(=O)N[C@@H](CCSC)C(=O)N[C@@H](CC(=O)O)C(=O)N[C@@H](CCCCN)C(=O)N[C@H](C(=O)N[C@@H](CCCNC(=N)N)C(=O)N[C@@H](CCC(N)=O)C(=O)N[C@@H](CCC(N)=O)C(=O)N[C@@H](CC(=O)O)C(=O)N[C@@H](Cc1ccccc1)C(=O)N[C@H](C(=O)N[C@@H](CC(N)=O)C(=O)N[C@@H](Cc1c[nH]c2ccccc12)C(=O)N[C@@H](CC(C)C)C(=O)N[C@@H](CC(C)C)C(=O)N[C@@H](C)C(=O)N[C@@H](CCC(N)=O)C(=O)N[C@@H](CCCNC(=N)N)C(=O)NCC(=O)N[C@@H](CCCCN)C(=O)N[C@@H](CCCCN)C(=O)N[C@@H](CO)C(=O)N[C@@H](CC(=O)O)C(=O)N[C@@H](Cc1c[nH]c2ccccc12)C(=O)N[C@@H](CCCCN)C(=O)N[C@@H](Cc1c[nH]cn1)C(=O)N[C@@H](CC(N)=O)C(=O)N[C@H](C(=O)N[C@H](C(=O)N[C@@H](CCC(N)=O)C(=O)O)[C@@H](C)O)[C@@H](C)CC)C(C)C)[C@@H](C)CC [GIP(1–42)] | approximately 7 min | 82 | 16 | 7.8 | 45 ± 4 | 0.46 ± 0.03 | 207 ± 16 | 0.34 ± 0.1 | 110 | 41 | 5.4 | 82 | 14 | 8.1 | 1.5 | 13 ± 1 | 10 ± 1 | approximately 15% | approximately 2 min
